From ChEMBL document CHEMBL1136600, “Functional expression and characterization of EryA, the erythritol kinase of Brucella abortus, and enzymatic synthesis of L-erythritol-4-phosphate” (Bioorg Med Chem Lett, 2003)

Columns and labels:
Brucella abortus = assay: Kinetic parameter against EryA, erythritol kinase of brucella abortus expressed in Escherichia coli
[1] = test system: Propionibacterium acidipropionici; assay: Kinetic parameters against EryA, erythritol kinase from Propionibacterium pentosaceum
[2] = Inhibition of 4-diphosphocytidyl-2-C-methyl-d-erythritol (CDP-ME) synthase

## OC[C@@H](O)[C@@H](O)CO
Brucella abortus
  Km: 260 µM
  k cat: 230 s⁻¹
[1]
  Km: 880 µM

## Nc1ncnc2c1ncn2[C@@H]1O[C@H](COP(=O)(O)OP(=O)(O)OP(=O)(O)O)[C@@H](O)[C@H]1O
Brucella abortus
  Km: 9800 µM
  k cat: 230 s⁻¹
[1]
  Km: 4800 µM

## C[C@@](O)(CO)[C@@H](O)COP(=O)(O)O
[2]
  IC50: 1360 µM
